Legend:
auditory hair cells = assay: Histological examination of the cochlea in conventional ototoxic hearing loss animal model; type: in vivo, SD (Sprague-Dawley) rats; details: basal and middle turns in the cochlea; cisplatin 16 mg/kg i.p.; forskolin intratympanic; after 5 days
Description: In order to exclude mice having congenitally abnormal hearing, a preliminary hearing test was performed on all mice before the experiment. An auditory brainstem response (ABR) test was conducted on 7-week-old SD (Sprague-Dawley) rats and then 16 mg/kg/7 ml of a cisplatin anticancer drug was administered intraperitoneally once to induce ototoxic hearing loss (FIG. 2). Before and after cisplatin administration, forskolin was intratympanically injected (IT) into one ear once in an amount of 25 μM in 20 μL a total of two times, and physiological saline containing DMSO as a control group was injected into the other ear. After 5 days, an auditory brainstem response (ABR) test and a histological examination were performed to evaluate the effect of preventing induction of forskolin-cAMP activity against ototoxic hearing loss.

HEI-OCl cells = assay: Inhibition of cisplatin-induced apoptosis in auditory cell line (calcein AM, cleaved PARP and caspase 3); type: cell-based; details: cisplatin 25 μM
Description: An auditory cell line expressing auditory genes (HEI-OCl; House-Ear Institute-organ of Corti 1) was used, and the HEI-OCl cells were incubated in DMEM medium (Dulbecco's modified Eagle's Medium) containing a high concentration of glutamine, supplemented with 10% fetal bovine serum (FBS) and 25 U/ml of interferon gamma at 33° C. and 10% CO2. The cells were treated with cisplatin at a concentration of 25 μM, and the effects of forskolin and retinoic acid were analyzed under conditions in which about 40 to 50% of cells were killed by cisplatin ototoxicity. In order to analyze the effects of forskolin and retinoic acid on ototoxicity, experimental groups were classified into (1) normal, (2) forskolin, (3) retinoic acid, (4) cisplatin, (5) cisplatin+forskolin, (6) cisplatin+retinoic acid, (7) cisplatin+forskolin+retinoic acid. Cisplatin was administered in an amount of 25 μM, forskolin was administered in an amount of 20 μM, and retinoic acid was administered in an amount of 50 μM. Then, viable cells were observed using calcein AM, a fluorescent stain applicable to live cells, and cleaved PARP and caspase 3, as apoptosis markers, were identified at the protein level.

[1] = tested on: lung cancer cell line (A549) xenograft; assay: Cisplatin anticancer effect in tumor-induced animal model (tumor size); type: in vivo, Balb/c/nu/nu mice; details: intraperitoneal for 5 days, then reared for 7 days
Description: In order to exclude mice having congenitally abnormal hearing, a preliminary hearing test was performed on all mice before the experiment. An auditory brainstem response (ABR) test was conducted on the immunodeficient Balb/c/nu/nu mice and then a lung cancer cell line (A549) was xenografted subcutaneously into the mice to produce a tumor-induced animal model (FIG. 1). After tumor formation in the tumor-induced ototoxic hearing loss animal model of Example 1, mice were randomly classified, and then (1) physiological saline (vehicle), (2) forskolin, (3) cisplatin or (4) a combination of cisplatin and forskolin was administered intraperitoneally to the mice for 5 days, and then the mice were reared for 7 days. The average tumor volume and body weight of each group were measured every week (FIGS. 4A and 4B). In addition, the weight of each of the extracted tumor and kidney was also measured (FIG. 4E).

[2] = tested on: tumor-induced ototoxic hearing loss animal model; assay: Auditory brainstem response (ABR) test in tumor-induced ototoxic hearing loss animal model; type: in vivo, Balb/c/nu/nu mice; details: 1 week after 2 weeks of administration, cisplatin 12 mg/kg 5 times a week, forskolin 2.5 mg/kg 6 times a week
Description: In order to exclude mice having congenitally abnormal hearing, a preliminary hearing test was performed on all mice before the experiment. An auditory brainstem response (ABR) test was conducted on the immunodeficient Balb/c/nu/nu mice and then a lung cancer cell line (A549) was xenografted subcutaneously into the mice to produce a tumor-induced animal model (FIG. 1).
(§1) The produced tumor-induced animal model was classified into (1) a physiological saline group (Vehicle), (2) a forskolin administration group (forskolin), (3) a cisplatin administration group (cisplatin), and (4) a cisplatin+forskolin combination administration group (cisplatin+forskolin), and each drug was administered to each group. Cisplatin was administered at 12 mg/kg 5 times a week, forskolin was administered at 2.5 mg/kg 6 times a week for a total of 2 weeks, the auditory brainstem response test was performed again 1 week after all administration was completed, and hematoxylin-eosin staining was performed for histological analysis. The auditory brainstem response (ABR) test is a method that determines the minimum stimulus level (dB) as a hearing threshold when applying tone burst sounds at 16 kHz and 32 kHz using a TDT ABR device.

[3] = tested on: auditory hair cells, supporting cells and spiral ganglion cells in the organ of Corti; assay: Hematoxylin-eosin staining of the cochlea in tumor-induced ototoxic hearing loss animal model; type: in vivo, Balb/c/nu/nu mice; details: basal and middle turns of the cochlea; forskolin given with cisplatin
Description: as §1, with “device. In addition, loss and damage of the auditory hair cells, supporting cells and spiral ganglion cells in the organ of Corti during the basal and middle turns of the cochlea were evaluated using hematoxylin-eosin staining.” for “device.”

Compound: N.N.[Cl][Pt][Cl] [cisplatin, cis-diaminedichloroplatinum (II)]
- loss of auditory hair cells (histological examination) (auditory hair cells): loss of a number of auditory hair cells
- cells killed by cisplatin ototoxicity (HEI-OCl cells): 40 to 50%
- cell viability / apoptosis (calcein staining, cleaved PARP and caspase 3) (HEI-OCl cells; forskolin 20 μM, retinoic acid 50 μM): apoptosis of cisplatin-induced auditory cell lines was observed
- effect of reducing a tumor size compared to the control group [1]: about 50%
- hearing threshold (ABR) ([2]; 16 kHz): 29 dB
- hearing threshold (ABR) ([2]; 32 kHz): 31 dB
- loss and damage of auditory outer hair cells (hematoxylin-eosin staining) [3]: a number of the auditory outer hair cells during the basal and middle turns were found to be lost
